Columns and labels:
[1] = system: isolated ileum of an experimental animal; experiment: Contraction of isolated ileum induced by histamine; conditions: histamine (5 μM), average ±SEM, at least 3 animals; read-out: Stimulation with histamine IC50
Method: Female and male experimental animals were used, weighing between 300 and 400 g, they came from Oswaldo Cruz Foundation's Center of Laboratory Animal Raising. The procedures involving the animals were examined and approved by Oswaldo Cruz Foundation's Committee of Animal Ethics (CEUA-FIOCRUZ, Licenca no. 00085-02). The animals were sensitized through a subcutanous injection with a mixture of 50 μg ovoalbumin and 5 mg Al(OH)3. From fourteen to thirty days after the sensitization, the experimental, animal was sacrificed in a chamber of carbonic gas to have its abdomen open and the location of the ileocecal valve. At this point, the intestine was sectioned and a segment of the small intestine, about 20 cm (equivalent to the ileum) was carefully removed and internally washed with a warmed solution (37° C.) of Tyrode (Composition in mM) (NaCl 137; KCl 2.7; NaH2PO4 0.42; NaHCO3 11.9; MgCl2 0.5; CaCl2 1.8; glucose 5.6) to remove the fecal content. […].
About 3-cm ileum fragments were vertically mounted in 10 ml glass cuvettes, immersed in Tyrode's solution at 37° C., aerated with carbogen (O2, 95% and CO2, 5%) and supplemented with atropine according to the standard procedure. The tissue had one of its ends tied to a rod while the other end was coupled with a transductor after the transference from the rod to the cuvette. The contractions were isotonically registered (basal tension of 1 g) with the support of a transductor of displacement-force connected to a computerized system to capture data. After a 30 minute period of balance, each segment was repeatedly stimulated by histamine (1 μM) until response stabilization. To induce anaphylatic contraction, ileum segments from sensitized experimental animals were stimulated by ovoalbumin (10 μg/ml). […]. The results were presented as a percentage of inhibition calculated in relation to the contractive effect obtained from stimulated and non-treated preparations.
Concentration-response data were adjusted through non-linear regression curves with the assistence of a graphics software (GraphPad Prism, USA). The concentration of an antagonist needed to inhibit the contractive response to inhibit the contractive response after stimulation by histamine or antigen at 50% (IC50) was used to compare the anti-spasmodic potency. The values expressed as an average ± standard error of the mean and statistically analysed through the test of analysis variance (ANOVA), followed by the Newman-Keuls-Student test.

[2] = system: dorsal subcutaneous tissue of rats; experiment: Anaphylactic release of histamine by fragments of dorsal subcutaneous tissue; design: species or system Wistar rats; conditions: ovoalbumin (300 μg/ml); for IC50: 60 min pre-treatment, read-out: IC50, inhibition of histamine release caused by anaphylatic stimulus
Method: Female and male Wistar rats were used, weighing between 180 and 200 g, they came from Oswaldo Cruz Foundation's Center of Laboratory Animal Raising. The procedures involving the animals were examined and approved by Oswaldo Cruz Foundation's Committee of Animal Ethics (CEUA-FIOCRUZ, Port. 00085-02). The rats were sensitized with a subcutaneous injection containing a mixture of 50 μg ovalbumina plus 5 mg Al(OH)3. Fourteen days after the sensitization the animals were sacrificed in a chamber of CO2, to have their dorsal hypodermis removed which was fragmented into smaller segments of about 3 mm in a Petri dish containing PBS. The fragments were individually transferred to a dish with 48 pools containing 500 μl of Hanks with Ca^++ and Mg^++.
Five experimental groups were studied in quadruplicates:
I. Saline group, negative control, pools where the tissue was neither treated nor stimulated;
II. Ovoalbumin group, positive control, pools where the tissue was not treated but it was stimulated by ovoalbumin (300 μg/ml);
III. JM24-1 group, pools where the tissue was previously treated with JM24-1 before the stimulation with ovoalbumin (300 μg/ml);
IV. JM25-1 group, pools where the tissue was previously treated with JM25-1 before the stimulation with ovoalbumin (300 μg/ml);
V. JMF2-1 group, pools where the tissue was previously treated with JMF2-1 before the stimulation with ovoalbumin (300 μg/ml).
Treated and non-treated pools were kept at 37° C. in a metabolic incubator (atmosphere containing 95% O2 and 5% CO2) for 60 minutes before the antigenic challenge. After the addition of ovoalbumin (300 μg/ml) all the pools were incubated again in a metabolic oven for more than 60 minutes. After removal of tissue for drying and weighing, the culture medium was collected and acidified with perchloric acid 0.4 N being, after centrifugation 150×g for 10 min. stocked at −20° C. until the moment of fluorimetric quantifying of histamine, according to the previous work. The values were shown like nanograms of released histamine by mg of tissue (dry weight).

[3] = system: Swiss 44 mice; experiment: Convulsivant activity after intraperitoneal injection; assay type: in vivo
Method: Female and male Swiss 44 mice were used, weighing between 25 and 30 g, they came from Oswaldo Cruz Foundation's Center of Laboratory Animal Raising. The procedures involving the animals were examined and approved by Oswaldo Cruz Foundation's Committee of Animal Ethics (CEUA-FIOCRUZ, Act 00085-02). […] For each molecule, the necessary dose to induce a convulsive clinical Figure in 50% of the animals (DE50) was determined by linear regressive curves interpoled (GraphPad Prim, version 3.03).

[4] = intraperitoneal, 15 minutes after injection, 10 mice per dose

Row | Compound | IC50 [1] [µM] | inhibition of anaphylactic histamine release, result in words [2] | DE50, dose to induce convulsion in 50% of the animals ([3]; mouse, in vivo, ip) [mg/kg] | IC50 [2] [µM] | convulsivant activity compared with lidocaine ([3]; 40-500 mg/Kg intraperitoneal) | DE50, dose to induce convulsion in 50% of the animals [3, 4] [mg/kg] | percentage of injected animals led to convulsion ([3]; 80 mg/Kg intraperitoneal) [%]
1 | CCN(CC)CC(=O)Nc1cccc(C)c1C [JM23-1, 2-dyethylamine-2′,3′-acetoxylidide] | 380 ± 60 | inactive | 154 | – | – | – | –
2 | CCN(CC)CC(=O)Nc1ccc(C)cc1C [JM24-1, 2-dyethylamine-2′,4′-acetoxylidide] | 310 ± 60 | concentrations comparable to that of lidocaine | – | 6.46 | noticeably inferior | 230 | –
3 | CCN(CC)CC(=O)Nc1c(C)cccc1C [Lidocaine, 1-(2-(dyethylamine)N-dymethylfenyl)-acetamide, reference compound] | 1410 ± 120 | – | – | 4.5 | – | 62 | 100

Source: patent US8163803B2 (Fundação Oswaldo Cruz—FIOCRUZ, priority 2004, dated 2012)
